“And” between values parts separate entries of the source, which are not always exact repeats. Identical values can stand only once.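 How tested: cells in 96-well plates exposed to compound for 48 hours at five concentrations. The concentration for 50% growth inhibition is given as GI50. Definition used: TGI = concentration required for complete inhibition of growth.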
Legend:
Assay in all cases: DTP human tumour cell line panel, 48 h
T-47D breast = test system: T-47D breast
MDA-MB-231 breast = test system: MDA-MB-231 breast
BT-549 breast = test system: BT-549 breast
MDA-N = test system: MDA-N
HS 578T breast = test system: HS 578T breast
NCI/ADR-RES ovarian = test system: NCI/ADR-RES ovarian
KM20L2 colon = test system: KM20L2 colon

Structure (SMILES) | TGI (T-47D breast) | TGI (MDA-MB-231 breast) | TGI (BT-549 breast) [µM] | TGI (MDA-N) [µM] | TGI (HS 578T breast) | TGI (NCI/ADR-RES ovarian) [µM] | GI50 (T-47D breast) | GI50 (MDA-MB-231 breast) | GI50 (BT-549 breast) | GI50 (HS 578T breast) | GI50 (NCI/ADR-RES ovarian) | GI50 (MDA-N) | GI50 (KM20L2 colon) [µM] | TGI (KM20L2 colon) [µM]
C/C(=N\NC(N)=O)C(CN(C)C)C(c1ccccc1)c1c(O)c2ccccc2oc1=O (stereo not drawn) | > 100 µM | > 100 µM | > 100 | > 100 | > 100 µM | > 100 | – | – | – | – | – | – | – | –
C[C@H](CSC(=O)c1ccccc1)C(=O)N1c2ccccc2C[C@H]1C(=O)O | > 100 µM | > 100 µM | > 100 | > 100 | > 100 µM | > 100 | – | – | – | – | – | – | – | –
CCCCCc1c(C)[nH]c(/C=C2\N=C(c3ccc[nH]3)C=C2Oc2ccc(Cl)cc2)c1C | 2.06 µM and 6.01 µM | 0.0798 µM and 0.157 µM | 19.7 | – | 0.65 µM and 0.4 µM | 18.8 | 0.0709 µM and 0.0329 µM | 0.0269 µM and < 0.01 µM | 0.222 µM and 0.352 µM | 0.126 µM and 0.0271 µM | 0.377 µM and 0.387 µM | – | – | –
C[C@H](CS(C)(=O)=O)Nc1ncc2cc(Oc3ccc(F)cc3F)c(=O)n(C)c2n1 | > 25 µM | > 25 µM | > 25 | – | > 25 µM | > 25 | > 25 µM | > 25 µM | > 25 µM | > 25 µM | > 25 µM | – | – | –
CCCCC[C@H]1C/C=C2/C(=O)C(Cl)=C[C@@H]2C/C=C\CCCC(=O)O[C@@H](CCCCC)C/C=C2/C(=O)C(Cl)=C[C@@H]2C/C=C\CCCC(=O)O1 | 1.18 µM | 0.995 µM | 0.836 | – | 16.7 µM | 9.46 | 0.39 µM | 0.372 µM | 0.33 µM | 0.709 µM | 2.44 µM | – | – | –
Cn1cc(-c2ccc(CNc3cc(-c4cnc5cc(OCCCN6CCCC6)ccn45)ncn3)cc2)cn1 | 43.1 µM | 3.56 µM | 27.2 | – | 26.2 µM | > 100 | 18.7 µM | 1.91 µM | 12.6 µM | 3.52 µM | 5.11 µM | – | – | –
C=C(C)[C@@H]1CC[C@@]2(C)[C@H]1[C@H]1CCC3[C@@]4(C)CC[C@H](O)C(C)(C)[C@@H]4CC[C@@]3(C)[C@]1(C)C[C@@H]2O (stereo partly drawn) | > 100 µM | > 100 µM | > 100 | > 100 | – | > 100 | – | – | – | – | – | – | – | –
Cc1cn2c(/C=N/N/C(N)=N\N)c(-c3ccc(Cl)c([N+](=O)[O-])c3)nc2s1 | 2.48 µM | 1.87 µM | 2.36 | – | 2.39 µM | 46.8 | 0.878 µM | 0.791 µM | 1.12 µM | 1.1 µM | 15.7 µM | – | – | –
CCc1c2c(nc3cccc(N)c13)-c1cc3c(c(=O)n1C2)COC(=O)[C@]3(O)CC | > 100 µM | > 100 µM | 0.0218 | > 100 | > 100 µM | > 100 | – | 0.053 µM | 0.00656 µM | – | 0.0164 µM | 0.0915 µM and 0.704 µM | – | –
COc1ccc(-c2ccc(/C=N/n3c(COc4ccc(Cl)cc4)n[nH]c3=S)o2)c([N+](=O)[O-])c1 | 82.4 µM | 48.5 µM | 50 | – | > 100 µM | 50 | 9.57 µM | 14.2 µM | 13.6 µM | 47.7 µM | 15.8 µM | – | – | –
Nc1nc(Nc2cccc(F)c2)nc2ccccc12 | 63 µM | 34.2 µM | > 100 | – | 58 µM | 94.3 | 15.6 µM | 13.8 µM | 30.2 µM | 20 µM | 26.7 µM | – | – | –
CC1=CC(=O)C(C(C)=Nc2ccccc2Cl)C(=O)O1 (stereo not drawn) | > 100 µM | > 100 µM | – | – | > 100 µM | > 100 | > 100 µM | > 100 µM | – | > 100 µM | > 100 µM | – | – | –
CC(=O)C1=C([O-])C(C)OC1=O.CC(=O)C1=C([O-])C(C)OC1=O.[NH-]C1CCCC[C@H]1[NH-].[Pt+4] (stereo not drawn) | – | – | – | – | – | – | – | – | – | – | – | – | 66.7 | > 100
CCc1c[nH]c2ncnc(N3CC[C@@](N)(CNC(=O)c4ccc(F)cc4F)C3)c12 | > 100 µM | > 100 µM | 55.3 | – | 75.2 µM | > 100 | 30.8 µM | 35.6 µM | 17 µM | 18.2 µM | 83.9 µM | – | – | –
COc1cc2cc(Oc3ccc(NC(=O)c4ccc(Cl)c(C(F)(F)F)c4)cc3)c(C)nc2cc1OC | 99.6 µM | 27.5 µM | 70.2 | – | 64 µM | > 100 | 5.69 µM | 11.4 µM | 8.86 µM | 16.6 µM | 4.21 µM | – | – | –
Cc1ncc([N+](=O)[O-])n1CCNC(=O)CCCn1cnc([N+](=O)[O-])n1 | > 100 µM | > 100 µM | – | > 100 | > 100 µM | > 100 | – | – | – | – | – | – | – | –
O=[N+]([O-])c1nccn1CC1OC(n2ccnc2[N+](=O)[O-])C(O)C(O)C1O (stereo not drawn) | > 100 µM | – | > 100 | > 100 | > 100 µM | – | – | – | – | – | – | – | – | –
COc1ccccc1-c1c(C)nn2c(NCc3ccccn3)cc(C)nc12 | > 50 µM | > 50 µM | > 50 | – | > 50 µM | > 50 | 1.04 µM | 34.7 µM | > 37.3 µM | > 44.7 µM | 24.5 µM | – | – | –
C/C1=C\CC[C@@](C)(O)[C@@H]2CC3[C@@H](OC(=O)C34CC4)[C@@H](O2)[C@H](C)CCC1 (stereo partly drawn) | > 100 µM | 43.5 µM | – | – | – | 34 | 47.2 µM | 19.6 µM | – | – | 17 µM | – | – | –
Cn1cc(-c2ccc3c(c2)CCN3C(=O)Cc2cccc(C(F)(F)F)c2)c2c(N)ncnc21 | 20.2 µM | 21.9 µM | 12.4 | – | 19.1 µM | 38.8 | 3.32 µM | 4.69 µM | 1.82 µM | 2.76 µM | 4.64 µM | – | – | –
COc1cc(/C=C(/c2ccccc2)[N+](=O)[O-])c(OC)c2c1OCO2 | 5.57 µM | 3.33 µM | 3.23 | – | 14.9 µM | 7.37 | 1.21 µM | 1.7 µM | 1.66 µM | 2.99 µM | 2.43 µM | – | – | –
CCN1C(=O)N(CC)C2C1NN=c1s/c(=C3\C(=O)N(C)c4ccccc43)c(=O)n12 (stereo not drawn) | > 100 µM | 34.6 µM | 37.9 | – | > 39.9 µM | 38.7 | 0.632 µM | 1.99 µM | 1.39 µM | 0.542 µM | 0.729 µM | – | – | –
O=C(Nc1ccc2c(c1)oc(=O)c1ccccc12)C(Cl)Cl | > 100 µM | > 100 µM | > 100 | > 100 | > 100 µM | > 100 | – | – | – | – | – | – | – | –

Reference: PubChem BioAssay (NCI)
